From ChEMBL document CHEMBL4400572, “Small structural alterations greatly influence the membrane affinity of lipophilic ligands: Membrane interactions of bafilomycin A1 and its desmethyl derivative bearing 19F-labeling” (Bioorg Med Chem, 2019) come the findings set out here.

Data set [1] is described as follows: n-Octanol/water partition coefficient, log P of the compound by RP-HPLC analysis. In kind it is physicochemical.
Data set [2] is described as follows: n-Octanol/water partition coefficient, log P of the compound by UV-RP-HPLC analysis. The data set is classed as physicochemical.
Data set [3] in a line: Permeability of the compound assessed as rate constant for coming off the membrane by PAMPA. In kind it is ADME. A general note: The PAMPA barrier holds no transporters, so it reflects passive diffusion.
Data set [4] can be described thus: Permeability of the compound assessed as ratio of Kin to Kout by PAMPA. In kind it is ADME.
The nature of data set [5]: Permeability of the compound assessed as molar fraction in donor well at 0.5 mM measured immediately by PAMPA. In kind it is ADME. The note with it: 500 µM.
Data set [6] is described as follows: Permeability of the compound assessed as molar fraction in membrane at 0.5 mM measured after 2 hrs by PAMPA. In kind it is ADME. As to conditions: 500 µM.
Data set [7] can be described thus: Permeability of the compound assessed as molar fraction in acceptor well at 0.5 mM measured after 2 hrs by PAMPA. As to conditions: 500 µM. In kind it is ADME.
Another data set relates to Lipid bilayer. As to the kind of experiment: Binding affinity to POPC liposome membrane assessed as intrinsic dipolar splitting (D) at <1 mg by solid-state 19F NMR spectra analysis.
The nature of data set [8]: Permeability of the compound assessed as molar fraction in donor well at 0.5 mM measured after 16 hrs by PAMPA. In kind it is ADME. As to conditions: 500 µM.
Data set [9] can be described thus: Permeability of the compound assessed as rate constant for partitioning to the membrane by PAMPA. In kind it is ADME.
Data set [10] is described as follows: Permeability of the compound assessed as molar fraction in membrane at 0.5 mM measured after 16 hrs by PAMPA. The data set is classed as ADME. As to conditions: 500 µM.
The nature of data set [11]: Permeability of the compound assessed as molar fraction in donor well at 0.5 mM measured after 2 hrs by PAMPA. The data set is classed as ADME. As to conditions: 500 µM.
A short description of data set [12]: Permeability of the compound assessed as molar fraction in acceptor well at 0.5 mM measured after 16 hrs by PAMPA. The data set is classed as ADME. As to conditions: 500 µM.
Data set [13] can be described thus: Permeability of the compound by PAMPA.

A word on the logP: it is a log measure of how a compound divides between an organic and an aqueous phase. Lower therefore signals lower lipophilicity. As for `Cc1c(Cl)cccc1Cl`, the logP in [1] is 4.29.
Regarding `Cc1ccc(C(=O)c2ccc(C)cc2)cc1`, in data set [2], the log partition coefficient (logP) stood at 3.84.
On to `CO/C1=C\C(C)=C\C[C@@H](O)CC/C(C)=C/C=C/[C@H](OC)[C@@H]([C@@H](C)[C@@H](O)[C@H](C)[C@@]2(O)C[C@@H](O)[C@H](C)[C@@H](C(F)(F)F)O2)OC1=O`, for which the results for the K in data set [3] and in data set [9] were 5.91 ×10⁻⁷ /s and 7.08 ×10⁻⁵ /s, respectively. In data set [4], the Ratio stood at 143. Moreover, the permeability came out at 100% in [5]; 33.7% in data set [6]; 2.8% in data set [7]; 30.2% in [8]; 63.1% in data set [10]; 63.4% in data set [11]. Further, the permeability in data set [12] is listed as 6.7%. Moreover, in the data set with Lipid bilayer, the D amounted to 2.4 kHz. The compound also showed a logP in data set [2] of 2.81.
Usually Papp stands for a coefficient for how fast a substance crosses the barrier. Higher therefore signals fast passage. Regarding `Cn1c(=O)c2[nH]cnc2n(C)c1=O.O` [THEOPHYLLINE], the Papp in [13] worked out at 0.0848 ×10⁻⁶ cm/s.
For `CO/C1=C\C(C)=C\[C@@H](C)[C@@H](O)[C@@H](C)C/C(C)=C/C=C/[C@H](OC)[C@@H]([C@@H](C)[C@@H](O)[C@H](C)[C@@]2(O)C[C@@H](O)[C@H](C)[C@@H](C(F)(F)F)O2)OC1=O`, the K in data set [3] came out at 2.47 ×10⁻⁷ /s; in [9], 9.55 ×10⁻⁵ /s. Besides, in [4], the Ratio turned out to be 393. The permeability in data set [5] was 100%; in data set [6] it was 48.3%; in [7] it was -0.5%; in [8], 16.6%; in data set [10], 83.7%; in [11], 52.2%. Also, the permeability in [12] is on record as -0.2%. Moreover, the D in the data set on Lipid bilayer stood at 2.9 kHz. The compound further gave a logP in data set [2] of 4.54.
In the case of `OC/C=C/c1ccccc1` [CINNAMIC ALCOHOL], the logP in data set [1] worked out at 1.9.
On to `CO/C1=C\C(C)=C\[C@@H](C)[C@@H](O)[C@@H](C)C/C(C)=C/C=C/[C@H](OC)[C@@H]([C@@H](C)[C@@H](O)[C@H](C)[C@@]2(O)C[C@@H](O)[C@H](C)[C@@H](C(C)C)O2)OC1=O` [BAFILOMYCIN A1], for which the K in data set [3] is given as 3.25 ×10⁻⁷ /s; in data set [9] it was 20.7 ×10⁻⁵ /s. In addition, in data set [4], the Ratio turned out to be 1170. Besides, the permeability is 100% in data set [5]; 67.9% in data set [6]; 4.8% in data set [7]; 11% in [8]; 90.5% in data set [10]; 27.4% in [11]. For the same compound, the permeability in [12] is -1.5%. In [2], this compound had a lipophilicity (logP) of 4.74.
